Test results taken from patent EP0062319A1, “3-Methyl-1-(2-(3-naphthyloxy)-ethyl)-2-pyrazolin-5-one for the treatment of the metastasis and growth of tumour cells” (BAYER AG, priority 1981, dated 1982).

Columns and labels:
[1] = test system: Lewis-Lungenkarzinom-Zellen; experiment: DNA synthesis by 3H-thymidine uptake in Lewis lung carcinoma cells in vitro; assay type: cell-based, Mäuse; details: 0,1, 1,0, 10 and 25 µg/ml, 4 h and 18 h, Fig. 1, relative to control = 100 %
From the text: Die antineoplastische Wirksamkeit wurde in vitro durch Messung der DNS-Synthese sowohl von B-16a- als auch von Lewis-Lungenkarzinom-Zellen durch eine Methode gemessen, der die Thymidin-Aufnahme zugrundeliegt. Zellen, die in Vorbereitung der Zellteilung DNS synthetisieren, sind durch ihre Fähigkeit gekennzeichnet, Thymidin aufzunehmen. Demnach ist die Zell-Proliferation mit der DNS-Synthese verbunden. Wenn die Menge der durch die Tumorzellen synthetisierten DNS vermindert wird, so ist das ein Anzeichen dafür, daß die Zellteilung und damit das Tumorwachstum gehemmt worden ist.
B-16a- und Lewis-Lungenkarzinom-Zellen wurden wie vor- stehend beschrieben erhalten. Die dispergierten Zellen wurden in sterilen 25 ml-Erlenmeyer-Kolben aus Kunststoff auf eine Konzentration von 1 x 10^5 Zellen/ml in MEM verdünnt. Tritium-markiertes Thymidin (^3H) mit einer spezifischen Aktivität von […] (50-80 Ci/mmol) wurde mit […] (2 µCi/ml) zu jedem ml der Zellsuspension hinzugefügt.
Zu einer Reihe von Kolben, die die B-16 - und Lewis-Lungenkarzinom-Zellen enthielten, wurde die Pyrazolon-Verbindung in Mengen von 0,1 , 1,0 , 10 und 25 µg/ml des Gesamtvolumens hinzugefügt. […]

Lewis-Lungen-Karzinom = experiment: Spontaneous (full) metastasis of subcutaneously injected Lewis lung carcinoma (lung tumour colonies) in mice; assay type: in vivo, C57BL/6J Mäuse; details: 0.08 mg daily s.c.
From the text: Wie bereits weiter oben festgestellt wurde, ist die Metastase […], die durch eine Reihe komplizierter Vorgänge dargestellt wird. Gegenwärtig finden zwei "Modell"-Systeme für die Untersuchung der in vivo-Metastase verbreitete Anwendung. Das erste Modellsystem umfaßt die subkutane Injektion der Tumorzellen in das Tier. Die subkutane Injektion der Tumorzellen und anschließende Entwicklung eines Primärtumors, gefolgt von spontaner Metastase, wird als "volle" Metastase betrachtet. Ein anderes Modellsystem umfaßt die Injektion der Tumorzellen durch die Schwanzvene. In Anbetracht der Komplexität der Metastase gilt die Schwanzvenen-Injektion als künstliches und nur partielles Modellsystem, da es nur die Vorgänge während des letzteren Teils der Metastase wiedergibt. Das Schwanzvenen-Modellsystem gilt jedoch auch als außerordentlich günstig im Hinblick auf eine Standardisierung der Versuchsbedingungen [vgl."Methods in Cancer Research", Kapitel VII, Academic Press, Inc., 1978].
Als Kontrolltiere wurden (unbehandelte) C57B1/6J-Mäuse nach folgender Arbeitsweise auf volle Metastase untersucht. Zellsuspensionen der B-16 - und 3LL-Karzinom-Zellen, die wie oben unter A und B beschrieben erhalten worden waren, wurden subkutan in die rechte Achselhöhlenregion der männlichen C57BL/6J-Mäuse injiziert (0,66 mm- = 26 gauge -Nadel; 0,2 ml). […]

## CC1=NN(CCOc2ccc3ccccc3c2)C(=O)C1 [3-Methyl-1-[2-(2-naphthyloxy)-ethyl]-2-pyrazolin-5-on]
[1]
  DNS-Synthese (3H-Thymidinaufnahme): konzentrationsabhängige Abnahme der DNS-Synthese
Lewis-Lungen-Karzinom; 1 x 10^5 cells s.c., killed day 21, mean ± SEM
  Lungen-Tumor-Kolonien Lewis-Lungen-Zellen: 0.8 ± 0.5
Lewis-Lungen-Karzinom; bracketed fraction
  Lungen-Tumor-Kolonien Lewis-Lungen-Zellen (fraction in brackets): 2/12
